In US11193136B2, “Cellulose synthase inhibitors and mutant plants” (VIB VZW, priority 2016, dated 2021):

Assays:
[1] = system: wild type Arabidopsis (Col-0); experiment: Growth of Arabidopsis seedlings on half MS medium with C17 or analogues; type: in vivo; conditions: 200 nM
Description: (§1) C17 (5-(4-chlorophenyl)-7-(2-methoxyphenyl)-1,5,6,7-tetrahydro-[1,2,4]triazolo[1,5-a]pyrimidine; ChemDiv, Catalogue #: 7693622), a synthetic molecule, was identified from a chemical screen as a ploidy-inducing compound in Arabidopsis protoplasts. To test the effects of C17 on plants, Arabidopsis seeds were plated on half MS medium (Murashige, T. and F. Skoog, 1962) in the presence or absence of 200 nM C17 or its analogues. […] To dissect the C17 inhibitory effects, we employed confocal laser scanning microscopy (LSM710, ZEISS) to observe the root structure. Five-day-old Arabidopsis seedlings grown on vertical plates were transferred to half MS medium containing C17 for further growth. After three-day treatment, the root tips were analysed. Consistent to its growth inhibitory activity, C17 caused cell death at a concentration as little as 25 nM (FIG. 2). At the lowest concentration applied, root cortical cells of the transition zone were affected. This phenotype was aggravated and expanded to other tissues with an increasing dosage of C17 (FIG. 2).
(§2) For studying the growth inhibitory effects of C17 on plants, wild type and C17 resistant mutants were germinated on half MS medium (Murashige and Skoog, 1962) supplemented with or without indicated levels of C17 or its analogs. Seven-day-old seedlings were photographed. […]

Arabidopsis root = experiment: Root structure and cell death by propidium iodide staining and confocal microscopy; type: in vivo
Description: as §1, §2

[2] = system: ixr1-1, ixr1-2, and ixr2-1 mutants; experiment: Sensitivity of isoxaben resistant mutants to C17; type: in vivo, Arabidopsis; conditions: 200 nM C17, 3 days
Excerpt: To date, several cellulose synthase inhibitors have been reported. In terms of molecular structure, the C17 compound differs completely from any known cellulose inhibitor.
For studying the growth inhibitory effects of C17 on plants, wild type and C17 resistant mutants were germinated on half MS medium (Murashige and Skoog, 1962) supplemented with or without indicated levels of C17 or its analogs. Seven-day-old seedlings were photographed. For observation of the root structure, five-day-old Arabidopsis seedlings were transferred to half MS medium containing different dosages of C17. After a three-day treatment, seedlings were photographed and their root tips were stained with propidium iodide (PI), a fluorescent dye that is excluded from the membranes of healthy cells but penetrates the plasma membrane of dead cells. The stained root tips were visualized by confocal laser scanning microscopy (LSM710, ZEISS). The ixr1-1 (collection number CS6201), ixr1-2 (CS6202) and ixr2-1 (CS6203) mutants were acquired from the ABRC. Five-day-old Arabidopsis seedlings were transferred to half MS medium with or without 200 nM C17. After 3 day, the plants were photographed.

[3] = system: Arabidopsis root elongation zone; experiment: Detection of cell wall weakening by PI uptake under gentle pressure on the root; type: in vivo
Description: Because the cellulose synthesized by the CESA1/CESA3 complex is a primary cell wall component, it was expected that C17-treated plants would display a weaker cell wall, which can be visualized by the uptake of propidium iodide (PI) following the application of a gentle pressure on the root.
For the detection of cell wall weakening, 3-day-old seedlings grown on half-strength MS medium were transferred to liquid medium without or with 200 nM C17. The root tips were stained with […] mL^−1 prodium iodide for three min. The stained root tips were put on the Nunc™ Lab-Tek™ Chambered Coverglass (Catalog #155361) without pressure or microscope slide with cover slip that gave a gentle exerting of pressure. By using confocal laser scanning microscopy (LSM710, ZEISS), the brittle cells could be visualized by the uptake of PI.

COc1ccccc1C1CC(c2ccc(Cl)cc2)N=C2N=CNN21 (stereo not drawn) [C17, 5-(4-chlorophenyl)-7-(2-methoxyphenyl)-1,5,6,7-tetrahydro-[1,2,4]triazolo[1,5-a]pyrimidine]
effect on plant growth [1]: severe growth inhibition accompanied by radial swelling of the root tip | cell elongation phenotype (Arabidopsis root; 100 nM C17, three-day treatment): radical rather than polar cell elongation | concentration causing cell death in the root (Arabidopsis root; five-day-old seedlings, three-day treatment, lowest concentration applied): 25 nM | sensitivity of isoxaben resistant mutants (ixr1-1, ixr1-2, ixr2-1) [2]: still sensitive | PI uptake and growth inhibition in C17-tolerant mutants ([3]; 200 nM C17, C17-tolerant mutants): No PI-positive cells and growth inhibition | time to cell wall weakening in the root elongation zone ([3]; 200 nM C17, wild type, PI uptake): ≤ 2 h
